Calls of active or inactive are those of the source. Where only a bound is given, the exact number is not on record here.

From ChEMBL document CHEMBL1201862, “PubChem BioAssay data set” (2004) come the findings set out here.

The nature of assay [1]: luciferase reporter signal suppression in cells – H4 neuroglioma cells, luminescence, dose response (AID 1990). Type of assay: functional, cell-based.
Assay [2] is described as follows: alpha-synuclein stem-loop luciferase translation blockers – H4 neuroglioma cells, luminescence, confirmation (AID 1988). Type of assay: functional, cell-based.
Another assay deals with T1, Streptokinase A (Streptococcus pyogenes serotype M1, UniProt P10520).
T1 sequence (P10520 whole entry): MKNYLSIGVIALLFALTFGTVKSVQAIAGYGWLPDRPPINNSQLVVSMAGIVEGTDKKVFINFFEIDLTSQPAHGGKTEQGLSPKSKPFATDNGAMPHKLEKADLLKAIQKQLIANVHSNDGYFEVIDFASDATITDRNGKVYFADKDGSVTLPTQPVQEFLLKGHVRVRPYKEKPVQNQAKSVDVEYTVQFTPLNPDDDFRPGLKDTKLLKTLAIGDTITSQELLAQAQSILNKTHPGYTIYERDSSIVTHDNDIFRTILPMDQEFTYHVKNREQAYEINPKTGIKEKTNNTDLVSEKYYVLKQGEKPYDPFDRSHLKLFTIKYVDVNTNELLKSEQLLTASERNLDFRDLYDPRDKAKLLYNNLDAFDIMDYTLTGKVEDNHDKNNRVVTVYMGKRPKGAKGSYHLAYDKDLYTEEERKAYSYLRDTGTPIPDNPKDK
The experiment in a line: viability-normalized secreted streptokinase activity reduction – plasminogen activation absorbance, OD405, dose response (AID 1914).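 Note: secreted streptokinase activity via plasminogen activation per viability signal from cell pellet.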 Type of assay: functional, Streptococcus pyogenes M1 GAS.

Assay [3] is described as follows: Trypanosoma cruzi growth suppression in host cells – NIH3T3 host cells, beta-gal luminescence, confirmation (AID 2044).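 Note: intracellular parasites grown in NIH/3T3 mouse fibroblasts as host cells; luminescent beta-galactosidase reporter signal from transgenic T. cruzi replicating inside host cells; inhibitors lower the luminescence signal.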 Type of assay: functional, cell-based.
Assay [4] can be described thus: NIH3T3 cell viability loss – ATP luminescence, mouse fibroblasts, counter-screen, dose response (AID 2010).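 Note: cells exposed to compound for about 90 hours before reading.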 Type of assay: functional, cell-based. A general note: The purpose of a counterscreen is to sort out artefacts and off-target activity.
Another assay deals with Streptococcus. The experiment in a line: GAS UMAA2166 growth inhibition – luminescence, BacTiterGlo, counter-screen for streptokinase expression inhibitor project, dose response (AID 1915).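 Note: potency for reduction of bacterial viability or growth.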 Type of assay: functional, organism-based.
Assay [5] concerns the target Dual specificity mitogen-activated protein kinase kinase 1 (Homo sapiens, UniProt Q02750). The experiment in a line: Navigating the Kinome. Panel member name: MAP2K1. Type of assay: functional.
In assay [6] the target is Tyrosine-protein kinase JAK2 (Homo sapiens, UniProt O60674). Type of assay: functional.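 Note: JAK2 tested as one member of a kinase panel.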
Assay [7] has as its target ALK tyrosine kinase receptor (Homo sapiens, UniProt Q9UM73). Type of assay: functional.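 Note: ALK tested as one member of a kinase panel screen.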
Assay [8] deals with Tyrosine-protein kinase JAK3 (Homo sapiens, UniProt P52333). Type of assay: functional.
Another assay addresses LIM domain kinase 1 (Homo sapiens, UniProt P53667). The experiment in a line: Navigating the Kinome. Panel member name: LIMK1. Type of assay: functional.
The target of assay [9] is Mitogen-activated protein kinase kinase kinase kinase 2 (Homo sapiens, UniProt Q12851). Type of assay: functional.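 Note: measured as one member of a kinome-wide kinase panel, with MAP4K2 as the panel entry.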
For assay [10], the target named is Cyclin-dependent kinase 8 (Homo sapiens, UniProt P49336). Description: Navigating the Kinome. Panel member name: CDK8. Type of assay: functional.
For assay [11], the target named is Cyclin-dependent kinase 7 (Homo sapiens, UniProt P50613). Type of assay: functional.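 Note: value comes from a kinome-wide kinase profiling panel in which CDK7 is one member.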
The target of assay [12] is Vascular endothelial growth factor receptor 1 (Homo sapiens, UniProt P17948). Type of assay: functional.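 Note: measured within a kinome-wide profiling panel, FLT1 as the panel member.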
The target of assay [13] is cAMP-dependent protein kinase catalytic subunit alpha (Homo sapiens, UniProt P17612). Type of assay: functional.
Assay [14] has as its target Dual specificity protein kinase CLK4 (Homo sapiens, UniProt Q9HAZ1). Type of assay: functional.
Assay [15] addresses Mitogen-activated protein kinase kinase kinase kinase 4 (Homo sapiens, UniProt O95819). Type of assay: functional.
Assay [16] has as its target Dual specificity mitogen-activated protein kinase kinase 2 (Homo sapiens, UniProt P36507). Description: Navigating the Kinome. Panel member name: MAP2K2. Type of assay: functional.
Assay [17] addresses Luciferin 4-monooxygenase (Photinus pyralis, UniProt P08659). Description: Counter Screen for Luciferase-based Assay Positives. [Related pubchem assays: 620, 618, 411 ].
A further assay has as its target Estrogen receptor beta (Homo sapiens, UniProt Q92731). Description: blockers of SRC-3 recruitment to ERβ – biochemical, ELISA, streptavidin-HRP readout, orthogonal assay, confirmation (AID 1060). For orientation: An ELISA detects its analyte on a solid surface through an enzyme-linked reagent.
Another assay concerns HT-1080. The experiment in a line: HT1080 cell viability loss – fluorescence readout (AID 620). Type of assay: functional, cell-based. The settings on record: Homo sapiens.
For assay [18], the target named is T2, Sentrin-specific protease 6 (Homo sapiens, UniProt Q9GZR1).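 Note: Luminescence-based dose-response confirmatory assay of SENP6 inhibition, following up an ultra-high-throughput screen.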
T2 sequence (Q9GZR1 whole entry): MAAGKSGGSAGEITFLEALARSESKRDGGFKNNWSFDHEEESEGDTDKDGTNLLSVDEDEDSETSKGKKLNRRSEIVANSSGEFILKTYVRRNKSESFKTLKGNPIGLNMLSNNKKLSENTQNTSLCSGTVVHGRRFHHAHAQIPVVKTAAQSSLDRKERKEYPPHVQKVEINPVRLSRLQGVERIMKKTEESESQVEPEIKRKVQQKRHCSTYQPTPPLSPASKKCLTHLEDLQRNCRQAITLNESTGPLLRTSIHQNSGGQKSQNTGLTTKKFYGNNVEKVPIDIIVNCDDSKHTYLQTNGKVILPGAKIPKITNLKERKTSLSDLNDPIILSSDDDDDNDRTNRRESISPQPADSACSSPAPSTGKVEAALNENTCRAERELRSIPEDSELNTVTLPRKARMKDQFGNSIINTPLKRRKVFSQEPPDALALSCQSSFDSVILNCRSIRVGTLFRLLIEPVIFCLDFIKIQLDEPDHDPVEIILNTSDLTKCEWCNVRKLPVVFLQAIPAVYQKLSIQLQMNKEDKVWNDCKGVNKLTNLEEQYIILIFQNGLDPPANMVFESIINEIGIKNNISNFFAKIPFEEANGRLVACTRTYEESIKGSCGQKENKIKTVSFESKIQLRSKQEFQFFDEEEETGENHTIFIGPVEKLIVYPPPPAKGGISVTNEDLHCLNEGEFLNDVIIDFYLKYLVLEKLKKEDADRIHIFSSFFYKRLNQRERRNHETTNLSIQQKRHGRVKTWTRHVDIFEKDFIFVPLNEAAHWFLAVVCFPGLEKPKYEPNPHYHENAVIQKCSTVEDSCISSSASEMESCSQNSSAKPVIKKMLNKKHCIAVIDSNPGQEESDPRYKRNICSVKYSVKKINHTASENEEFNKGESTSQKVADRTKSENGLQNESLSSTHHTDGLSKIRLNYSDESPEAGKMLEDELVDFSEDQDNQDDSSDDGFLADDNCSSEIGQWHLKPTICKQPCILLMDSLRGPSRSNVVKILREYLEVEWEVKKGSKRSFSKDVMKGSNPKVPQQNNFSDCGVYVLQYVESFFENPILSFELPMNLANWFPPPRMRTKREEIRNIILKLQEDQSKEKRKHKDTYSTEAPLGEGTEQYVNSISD
Type of assay: functional.

Tyrosine-protein kinase JAK2, sequence (O60674 whole entry): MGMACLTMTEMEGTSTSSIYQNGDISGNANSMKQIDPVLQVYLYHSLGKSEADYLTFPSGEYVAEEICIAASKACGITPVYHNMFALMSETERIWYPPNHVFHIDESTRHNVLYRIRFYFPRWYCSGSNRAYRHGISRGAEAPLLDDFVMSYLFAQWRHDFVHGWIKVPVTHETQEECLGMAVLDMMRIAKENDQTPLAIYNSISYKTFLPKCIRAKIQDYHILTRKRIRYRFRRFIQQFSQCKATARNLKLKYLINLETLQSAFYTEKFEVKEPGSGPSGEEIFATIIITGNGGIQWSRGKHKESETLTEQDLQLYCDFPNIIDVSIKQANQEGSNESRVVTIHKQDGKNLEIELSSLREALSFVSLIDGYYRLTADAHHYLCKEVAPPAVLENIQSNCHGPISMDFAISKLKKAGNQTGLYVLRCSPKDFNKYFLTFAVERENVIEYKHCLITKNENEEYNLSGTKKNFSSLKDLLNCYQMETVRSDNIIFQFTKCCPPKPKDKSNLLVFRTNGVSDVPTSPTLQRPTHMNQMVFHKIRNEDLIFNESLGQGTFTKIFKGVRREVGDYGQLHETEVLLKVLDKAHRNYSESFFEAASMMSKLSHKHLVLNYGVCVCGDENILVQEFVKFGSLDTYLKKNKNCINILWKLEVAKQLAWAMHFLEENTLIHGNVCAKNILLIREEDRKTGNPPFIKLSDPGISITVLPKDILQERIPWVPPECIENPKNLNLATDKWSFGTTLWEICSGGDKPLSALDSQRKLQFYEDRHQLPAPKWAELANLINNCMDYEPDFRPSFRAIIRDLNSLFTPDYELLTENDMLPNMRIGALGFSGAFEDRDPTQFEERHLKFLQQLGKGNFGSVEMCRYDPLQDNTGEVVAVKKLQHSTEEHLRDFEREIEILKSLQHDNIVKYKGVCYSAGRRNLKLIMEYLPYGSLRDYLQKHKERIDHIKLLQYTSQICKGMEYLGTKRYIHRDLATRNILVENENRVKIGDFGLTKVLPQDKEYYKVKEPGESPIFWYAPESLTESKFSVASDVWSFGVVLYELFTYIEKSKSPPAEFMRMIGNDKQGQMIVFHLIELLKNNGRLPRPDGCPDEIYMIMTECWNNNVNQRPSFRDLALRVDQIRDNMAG
Mitogen-activated protein kinase kinase kinase kinase 4, sequence (O95819 whole entry): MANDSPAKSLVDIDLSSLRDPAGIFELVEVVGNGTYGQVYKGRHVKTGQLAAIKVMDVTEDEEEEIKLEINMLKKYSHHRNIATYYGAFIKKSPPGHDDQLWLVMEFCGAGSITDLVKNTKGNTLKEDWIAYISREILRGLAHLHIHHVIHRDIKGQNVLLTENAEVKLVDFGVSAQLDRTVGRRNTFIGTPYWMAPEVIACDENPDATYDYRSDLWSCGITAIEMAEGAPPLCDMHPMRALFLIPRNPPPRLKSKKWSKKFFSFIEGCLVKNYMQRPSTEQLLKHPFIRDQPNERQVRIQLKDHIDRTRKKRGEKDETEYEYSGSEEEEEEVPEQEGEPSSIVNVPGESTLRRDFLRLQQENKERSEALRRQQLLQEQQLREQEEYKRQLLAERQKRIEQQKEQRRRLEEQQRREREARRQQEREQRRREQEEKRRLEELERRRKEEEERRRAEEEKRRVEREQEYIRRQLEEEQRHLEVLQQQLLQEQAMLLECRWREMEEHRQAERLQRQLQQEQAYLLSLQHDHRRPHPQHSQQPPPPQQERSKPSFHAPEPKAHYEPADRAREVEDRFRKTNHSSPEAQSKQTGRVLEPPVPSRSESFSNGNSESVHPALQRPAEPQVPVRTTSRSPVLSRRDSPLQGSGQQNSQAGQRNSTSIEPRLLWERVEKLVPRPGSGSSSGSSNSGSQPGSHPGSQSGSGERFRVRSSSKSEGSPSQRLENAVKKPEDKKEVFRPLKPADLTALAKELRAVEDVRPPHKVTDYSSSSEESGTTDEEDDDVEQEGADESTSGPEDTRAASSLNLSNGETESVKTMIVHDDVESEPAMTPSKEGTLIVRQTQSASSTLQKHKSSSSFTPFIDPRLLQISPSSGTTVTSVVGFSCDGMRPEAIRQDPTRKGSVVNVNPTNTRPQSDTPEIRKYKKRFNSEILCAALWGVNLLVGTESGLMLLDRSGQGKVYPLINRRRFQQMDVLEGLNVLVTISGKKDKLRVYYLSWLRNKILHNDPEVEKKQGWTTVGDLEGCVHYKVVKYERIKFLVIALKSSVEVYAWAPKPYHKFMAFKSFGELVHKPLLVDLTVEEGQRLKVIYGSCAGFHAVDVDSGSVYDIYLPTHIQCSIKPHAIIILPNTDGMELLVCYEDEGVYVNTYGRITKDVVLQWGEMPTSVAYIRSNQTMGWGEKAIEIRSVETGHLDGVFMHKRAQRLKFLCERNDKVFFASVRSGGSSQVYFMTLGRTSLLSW
Dual specificity mitogen-activated protein kinase kinase 2, sequence (P36507 whole entry): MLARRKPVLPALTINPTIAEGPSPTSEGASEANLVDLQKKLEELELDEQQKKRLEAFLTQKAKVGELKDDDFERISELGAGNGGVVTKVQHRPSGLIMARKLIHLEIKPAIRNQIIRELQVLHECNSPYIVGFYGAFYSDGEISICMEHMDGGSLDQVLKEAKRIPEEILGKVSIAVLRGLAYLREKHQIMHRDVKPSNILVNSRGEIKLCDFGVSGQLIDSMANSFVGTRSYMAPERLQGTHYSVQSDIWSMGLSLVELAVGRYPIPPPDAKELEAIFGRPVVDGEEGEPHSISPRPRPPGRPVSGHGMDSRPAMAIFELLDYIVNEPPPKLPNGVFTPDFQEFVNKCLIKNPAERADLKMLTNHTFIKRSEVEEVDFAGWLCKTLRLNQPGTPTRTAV
Dual specificity protein kinase CLK4, sequence (Q9HAZ1 whole entry): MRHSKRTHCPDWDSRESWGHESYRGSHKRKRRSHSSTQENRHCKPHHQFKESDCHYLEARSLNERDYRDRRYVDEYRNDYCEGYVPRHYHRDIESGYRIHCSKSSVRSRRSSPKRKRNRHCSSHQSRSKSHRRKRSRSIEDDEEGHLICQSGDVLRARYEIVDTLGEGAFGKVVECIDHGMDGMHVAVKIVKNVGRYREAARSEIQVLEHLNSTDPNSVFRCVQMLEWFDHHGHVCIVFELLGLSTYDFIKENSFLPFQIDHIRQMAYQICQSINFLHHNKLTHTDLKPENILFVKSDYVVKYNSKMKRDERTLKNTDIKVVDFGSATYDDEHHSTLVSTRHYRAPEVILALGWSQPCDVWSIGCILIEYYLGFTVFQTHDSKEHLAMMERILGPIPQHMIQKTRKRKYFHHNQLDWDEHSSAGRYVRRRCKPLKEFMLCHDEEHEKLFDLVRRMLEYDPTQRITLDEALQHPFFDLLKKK
Cyclin-dependent kinase 8, sequence (P49336 whole entry): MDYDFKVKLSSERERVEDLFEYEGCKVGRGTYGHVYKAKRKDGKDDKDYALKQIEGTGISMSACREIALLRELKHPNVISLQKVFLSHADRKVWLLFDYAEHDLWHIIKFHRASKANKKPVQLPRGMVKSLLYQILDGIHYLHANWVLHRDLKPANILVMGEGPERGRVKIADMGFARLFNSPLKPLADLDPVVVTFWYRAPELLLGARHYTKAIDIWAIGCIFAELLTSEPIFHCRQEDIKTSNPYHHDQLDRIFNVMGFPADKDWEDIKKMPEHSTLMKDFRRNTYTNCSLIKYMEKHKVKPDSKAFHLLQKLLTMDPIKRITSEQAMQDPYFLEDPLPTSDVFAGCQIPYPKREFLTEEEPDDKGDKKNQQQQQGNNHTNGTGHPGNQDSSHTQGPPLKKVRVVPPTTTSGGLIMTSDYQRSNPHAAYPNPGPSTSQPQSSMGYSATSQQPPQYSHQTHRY
Tyrosine-protein kinase JAK3, sequence (P52333 whole entry, the tested form may be a part): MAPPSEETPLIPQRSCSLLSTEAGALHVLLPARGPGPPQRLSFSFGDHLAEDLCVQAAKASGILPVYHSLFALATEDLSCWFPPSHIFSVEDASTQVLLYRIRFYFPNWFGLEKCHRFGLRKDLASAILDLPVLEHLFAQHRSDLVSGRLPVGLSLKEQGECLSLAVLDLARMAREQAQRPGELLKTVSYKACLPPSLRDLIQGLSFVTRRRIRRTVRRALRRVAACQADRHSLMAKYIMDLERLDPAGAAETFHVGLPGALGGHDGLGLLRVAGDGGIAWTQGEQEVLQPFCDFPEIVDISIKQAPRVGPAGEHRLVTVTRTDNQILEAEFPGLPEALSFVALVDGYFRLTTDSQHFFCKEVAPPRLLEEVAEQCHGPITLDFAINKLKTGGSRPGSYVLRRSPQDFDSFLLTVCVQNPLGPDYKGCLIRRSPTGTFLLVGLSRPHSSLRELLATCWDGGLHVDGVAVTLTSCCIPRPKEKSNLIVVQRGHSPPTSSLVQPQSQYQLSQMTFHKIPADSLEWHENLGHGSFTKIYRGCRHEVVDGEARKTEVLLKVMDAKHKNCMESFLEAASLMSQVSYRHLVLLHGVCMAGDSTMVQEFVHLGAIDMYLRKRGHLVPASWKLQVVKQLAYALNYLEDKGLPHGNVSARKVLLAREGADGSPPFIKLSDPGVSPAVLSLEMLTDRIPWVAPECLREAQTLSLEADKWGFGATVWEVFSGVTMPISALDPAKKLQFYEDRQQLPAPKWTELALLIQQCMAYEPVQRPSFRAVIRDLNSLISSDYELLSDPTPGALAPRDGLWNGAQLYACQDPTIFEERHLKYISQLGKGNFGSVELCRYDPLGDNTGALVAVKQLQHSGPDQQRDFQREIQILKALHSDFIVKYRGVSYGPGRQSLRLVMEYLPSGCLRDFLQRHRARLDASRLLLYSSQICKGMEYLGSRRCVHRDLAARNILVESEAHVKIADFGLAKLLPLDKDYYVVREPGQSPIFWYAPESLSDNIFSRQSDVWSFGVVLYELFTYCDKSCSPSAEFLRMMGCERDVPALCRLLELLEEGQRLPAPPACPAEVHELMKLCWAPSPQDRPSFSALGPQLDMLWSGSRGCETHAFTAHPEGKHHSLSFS

As usually defined, the EC50 is the concentration needed to bring the measured effect to its halfway point. For the compound `CN1CCN(C(c2ccc(C(F)(F)F)cc2)c2cc(Cl)c3cccnc3c2O)CC1` (stereo not drawn), the EC50 in assay [1] is 10.5 µM (active); in assay [2], 8.87 µM (active); at Streptokinase A it was > 150 µM (not active); in assay [3], 1.32 µM (active); in assay [4] it was 6.54 µM (active); in the assay with Streptococcus it was 6.51 µM (active).

Broadly, the Ki is the equilibrium dissociation constant of an inhibitor or competing ligand from its target. As for `O=C(NC(CCO)c1ccccc1)c1ccc(-c2ccncc2)cc1` (stereo not drawn), the Ki in assay [5] is > 3.16 µM (inactive); in assay [6], > 2.51 µM (inactive); in [7], > 6.31 µM (inactive); in [8] it was > 5.01 µM (inactive); at LIM domain kinase 1, > 3.16 µM (inactive); in assay [9], > 2.51 µM (inactive). Moreover, the inhibitory constant (Ki) in [10] is 2.51 µM (active); in assay [11], > 3.98 µM (inactive); in assay [12], > 3.98 µM (inactive); in assay [13], 0.0316 µM (active); in assay [14], 0.316 µM (active); in assay [15] it was > 5.01 µM (inactive). The Ki in assay [16] is > 3.98 µM (inactive).

For orientation: IC50 means the concentration that gives 50% inhibition. Turning to `NC(=O)c1c(NC(=O)c2cc3ccccc3o2)sc2c1CCC2`, the EC50 was 1.7 µM (active) in [17] and > 50 µM (not active) in the assay with HT-1080. For the same compound, the IC50 is 0.0552 µM (not active) at Estrogen receptor beta and 17.2 µM (active) in assay [18].
